According to US6863897B2, “Stabilization of resorcinol derivatives in cosmetic compositions” (Unilever Home & Personal Care USA, division of Conopco, Inc., priority 2002, dated 2005):

Experiment: Storage color stability of resorcinol formulations with and without micronized TiO2 (chromameter CIE L*)
Type: physicochemical
Set-up: key: difference in CIE L* (lightness) values, with TiO2 minus without
Settings: 45° C. oven, glass amber jars, 0.2% micronized TiO2 (MT-100Z), resorcinol content 2.17 milli-M
Description: In this experiment, the storage stability in terms of color change of resorcinol derivatives time was measured with and without the presence of metal oxides.
The color stabilization of formulations of containing 4-substituted resorcinol derivatives by TiO2 was assessed by measuring the chromameter L* value (Luminance, or lightness) of the different formulations over time. A decrease in L* over time represents a darkening of the formulations as color develops from the white starting formulation due to decomposition of the resorcinol derivative. In Table 5 below, the ΔL value between formulations with and without TiO2 indicates the magnitude of color difference between the comparative samples. […] Thus, one can see that TiO2 has a large color-stabilizing effect, particularly on the formulations containing 4-substituted resorcinols.
The cosmetic compositions of Examples 5 to 8 in the Table above were stored and tested for stability in terms of discoloration. The resorcinol and 4-substituted resorcinol derivatives in these examples had equal molar content, i.e., 2.17 milli-M. A comparative composition, example 8, was made by eliminating resorcinol or its derivatives from the compositions of examples 5 to 8. The product formulations were stored for 56 days in glass amber jars of 120 ml volume in an oven at 45° C.
Procedure for Measuring CIE L*a*b* Color of Cosmetic Formulations
A film is created by applying a composition evenly to an UV-Transparent quartz plate (4″×4⅛″×⅛″) with a spatula. An 8-path wet film applicator from Paul Gardner Company, Inc. with a 3″ path width is used. The applicator is manually drawn across the plate for a […] thickness.
The plate is flipped over with the thin film facing the bench top and suspended 1½″ above a black benchtop (L*a*b* reading of the benchtop is L*=27.5, a*=0.5, b*=−0.6). Then a hand held Minolta CR10 chromameter is calibrated on a white Calibration Color tile (L 98.2, a 0.2, b 1.2). The chromameter is then placed on the top of the plate and three readings of the Commission Internationale de l'Eclairage (CIE) L*a*b* color system are taken. • L*=Black to white (luminance) from 0 to 100 [L*=0 represents Black] • a*=green to red from −60 to +60 • b*=blue to yellow from −60 to +60
The formulation thin film L* values were used in the present analysis. For each data collection the average value for the three readings was used at 0, 14, 28, and 56 days.

| SMILES | Base-adjusted ΔL with TiO2 - ΔL without TiO2 for the resorcinol formulations (storage time 0 day) | Base-adjusted ΔL with TiO2 - ΔL without TiO2 for the resorcinol formulations (storage time 14 days) | Base-adjusted ΔL with TiO2 - ΔL without TiO2 for the resorcinol formulations (storage time 28 days) | Base-adjusted ΔL with TiO2 - ΔL without TiO2 for the resorcinol formulations (storage time 56 days) |
| --- | --- | --- | --- | --- |
| Oc1cccc(O)c1 [Resorcinol] | 0 | 0.9 | −2 | 1.1 |
| CCCCCCc1ccc(O)cc1O [4-Hexyl resorcinol, 4-hexyl resorcinol] | 0 | 7.7 | 0.1 | 3.7 |
| CCc1ccc(O)cc1O [4-Ethyl resorcinol, 4-ethyl resorcinol] | 0 | 12.0 | 4.6 | 7.6 |
